Results reported in paper PMC8745314, “Novel Tetrazole-Based Antimicrobial Agents Targeting Clinical Bacteria Strains: Exploring the Inhibition of Staphylococcus aureus DNA Topoisomerase IV and Gyrase” (International Journal of Molecular Sciences, 2021).
Values after ≈ are worked out from the molar mass of the structure shown.

How the values were obtained:
[1] = system: S. aureus T5592; experiment: MIC broth microdilution, clinical isolate; assay type: cell-based; conditions: Staphylococcus aureus, 19 h at 35 °C, read-out: minimal inhibitory concentration (MIC)
Experimental: (§1) In the next stage of the experiment, 8 of 11 compounds were selected for a clinical strain activity evaluation against S. aureus, S. epidermidis, E. coli, K. pneumoniae, and P. aeruginosa.
(§2) The antimicrobial assays were conducted using reference strains of bacteria derived from international microbe collections: American Type Culture Collection (ATCC) and National Collection of Type Culture (NCTC). The following standard strains of bacteria were used: Gram-positive—Staphylococcus aureus NCTC 4163, Staphylococcus aureus ATCC 25923, Staphylococcus aureus ATCC 6538, Staphylococcus aureus ATCC 29213, Staphylococcus epidermidis ATCC 12228, Staphylococcus epidermidis ATCC 35984, Gram-negative: Escherichia coli ATCC 25922, Pseudomonas aeruginosa ATCC 15442. Clinical strains of bacteria used in this study: Gram-positive: Staphylococcus epidermidis 5253, Staphylococcus epidermidis 4243, Staphylococcus aureus T5592, Staphylococcus aureus T5591 and Gram-negative: Escherichia coli 520, Escherichia coli 600, Klebsiella pneumoniae 510 and Pseudomonas aeruginosa 659 were obtained from the collection of the Department of Pharmaceutical Microbiology, Medical University of Warsaw, Poland and they were isolated from different biological materials taken from the patients hospitalized in the Warsaw Medical University hospitals. […] MIC was determined by the two-fold serial broth microdilution method in 96-well microtitration plates using Mueller–Hinton II broth medium (Becton Dickinson, Franklin Lakes, NJ, USA). The final inoculum of all studied bacteria was 10^6 CFU/mL (colony forming unit per milliliter). The stock solution of tested compounds was prepared in dimethyl sulfoxide (DMSO) and diluted to a maximum of 1% of solvent content with a sterile medium.

[2] = system: E. coli 600; experiment: MIC broth microdilution, clinical isolate; assay type: cell-based; conditions: Escherichia coli; E. coli 600, clinical isolate, 19 h at 35 °C; read-out: minimal inhibitory concentration (MIC)
Experimental: as §1, §2

[3] = system: S. epidermidis 5253; experiment: MIC broth microdilution, clinical isolate; assay type: cell-based; conditions: Staphylococcus epidermidis; S. epidermidis 5253, clinical isolate, 19 h at 35 °C; read-out: minimal inhibitory concentration (MIC)
Experimental: as §1, §2

[4] = system: S. aureus T5591; experiment: MIC broth microdilution, clinical isolate; assay type: cell-based; conditions: Staphylococcus aureus, 19 h at 35 °C, read-out: minimal inhibitory concentration (MIC)
Experimental: as §1, §2

[5] = system: P. aeruginosa 659; experiment: MIC broth microdilution, clinical isolate; assay type: cell-based; conditions: Pseudomonas aeruginosa; P. aeruginosa 659, clinical isolate, 19 h at 35 °C; read-out: minimal inhibitory concentration (MIC)
Experimental: as §1, §2

[6] = system: S. epidermidis 4243; experiment: MIC broth microdilution, clinical isolate; assay type: cell-based; conditions: Staphylococcus epidermidis; S. epidermidis 4243, clinical isolate, 19 h at 35 °C; read-out: minimal inhibitory concentration (MIC)
Experimental: as §1, §2

[7] = system: E. coli 520; experiment: MIC broth microdilution, clinical isolate; assay type: cell-based; conditions: Escherichia coli; E. coli 520, clinical isolate, 19 h at 35 °C; read-out: minimal inhibitory concentration (MIC)
Experimental: as §1, §2

[8] = system: K. pneumoniae 510; experiment: MIC broth microdilution, clinical isolate; assay type: cell-based; conditions: Klebsiella pneumoniae; K. pneumoniae 510, clinical isolate, 19 h at 35 °C; read-out: minimal inhibitory concentration (MIC)
Experimental: as §1, §2

[9] = system: E. coli ATCC 25922; experiment: MIC broth microdilution, standard strain; assay type: cell-based; conditions: Escherichia coli, ATCC25922; E. coli ATCC 25922, standard strain, 19 h at 35 °C; read-out: minimal inhibitory concentration (MIC)
Experimental: (§3) All synthesized compounds were tested in vitro against a set of bacteria, including representative standard Gram-positive and Gram-negative rods. Compounds were screened for their minimal inhibitory concentrations (MICs). […] These three compounds were also found to be good inhibitors of the growth of Gram-negative rods: […] The antimicrobial assays were conducted using reference strains of bacteria derived from international microbe collections: American Type Culture Collection (ATCC) and National Collection of Type Culture (NCTC). The following standard strains of bacteria were used: Gram-positive-Staphylococcus aureus NCTC 4163, Staphylococcus aureus ATCC 25923, Staphylococcus aureus ATCC 6538, Staphylococcus aureus ATCC 29213, Staphylococcus epidermidis ATCC 12228, Staphylococcus epidermidis ATCC 35984, Gram-negative: Escherichia coli ATCC 25922, Pseudomonas aeruginosa ATCC 15442. Clinical strains of bacteria used in this study: Gram-positive: Staphylococcus epidermidis 5253, Staphylococcus epidermidis 4243, Staphylococcus aureus […], Staphylococcus aureus […] and Gram-negative: Escherichia coli 520, Escherichia coli 600, Klebsiella pneumoniae 510 and Pseudomonas aeruginosa 659 were obtained from the collection of the Department of Pharmaceutical Microbiology, Medical University of Warsaw, Poland and they were isolated from different biological materials taken from the patients hospitalized in the Warsaw Medical University hospitals. Antimicrobial activity was examined by the minimal inhibitory concentration (MIC) method under standard procedures provided by CLSI with some modifications. MIC was determined by the two-fold serial broth microdilution method in 96-well microtitration plates using Mueller-Hinton II broth medium (Becton Dickinson, Franklin Lakes, NJ, USA). The final inoculum of all studied bacteria was 10^6 CFU/mL (colony forming unit per milliliter). The stock solution of tested compounds was prepared in dimethyl sulfoxide (DMSO) and diluted to a maximum of 1% of solvent content with a sterile medium.

[10] = system: P. aeruginosa ATCC 15442; experiment: MIC broth microdilution, standard strain; assay type: cell-based; conditions: Pseudomonas aeruginosa, ATCC15442; P. aeruginosa ATCC 15442, standard strain, 19 h at 35 °C; read-out: minimal inhibitory concentration (MIC)
Experimental: as §3

[11] = biological target: S. aureus topoisomerase IV (Staphylococcus aureus, UniProt P0C1S7+P0C1U9); experiment: Topoisomerase IV decatenation assay; assay type: biochemical; conditions: decatenation of kinetoplast DNA, read-out: IC50 ± S.E.M. for Topoisomerase IV (converted)
Sequence of S. aureus topoisomerase IV (P0C1S7 whole entry): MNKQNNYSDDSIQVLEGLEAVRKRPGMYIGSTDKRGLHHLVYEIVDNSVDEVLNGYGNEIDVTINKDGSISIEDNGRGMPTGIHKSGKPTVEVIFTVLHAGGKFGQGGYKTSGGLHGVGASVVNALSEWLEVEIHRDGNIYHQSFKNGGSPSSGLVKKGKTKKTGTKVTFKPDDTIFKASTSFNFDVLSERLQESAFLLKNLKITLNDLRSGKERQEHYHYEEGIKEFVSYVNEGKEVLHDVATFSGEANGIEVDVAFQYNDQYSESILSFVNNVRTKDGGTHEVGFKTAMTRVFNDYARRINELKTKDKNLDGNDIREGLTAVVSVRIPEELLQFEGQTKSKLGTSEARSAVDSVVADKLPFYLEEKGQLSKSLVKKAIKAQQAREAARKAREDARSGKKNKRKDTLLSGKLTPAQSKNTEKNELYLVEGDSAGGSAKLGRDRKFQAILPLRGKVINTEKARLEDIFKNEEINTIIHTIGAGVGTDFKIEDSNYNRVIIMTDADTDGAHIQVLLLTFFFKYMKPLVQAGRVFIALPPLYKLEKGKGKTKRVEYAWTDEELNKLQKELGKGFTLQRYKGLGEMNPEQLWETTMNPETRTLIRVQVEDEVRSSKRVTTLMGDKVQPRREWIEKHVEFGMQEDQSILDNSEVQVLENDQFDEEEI
Sequence of S. aureus topoisomerase IV (P0C1U9 whole entry): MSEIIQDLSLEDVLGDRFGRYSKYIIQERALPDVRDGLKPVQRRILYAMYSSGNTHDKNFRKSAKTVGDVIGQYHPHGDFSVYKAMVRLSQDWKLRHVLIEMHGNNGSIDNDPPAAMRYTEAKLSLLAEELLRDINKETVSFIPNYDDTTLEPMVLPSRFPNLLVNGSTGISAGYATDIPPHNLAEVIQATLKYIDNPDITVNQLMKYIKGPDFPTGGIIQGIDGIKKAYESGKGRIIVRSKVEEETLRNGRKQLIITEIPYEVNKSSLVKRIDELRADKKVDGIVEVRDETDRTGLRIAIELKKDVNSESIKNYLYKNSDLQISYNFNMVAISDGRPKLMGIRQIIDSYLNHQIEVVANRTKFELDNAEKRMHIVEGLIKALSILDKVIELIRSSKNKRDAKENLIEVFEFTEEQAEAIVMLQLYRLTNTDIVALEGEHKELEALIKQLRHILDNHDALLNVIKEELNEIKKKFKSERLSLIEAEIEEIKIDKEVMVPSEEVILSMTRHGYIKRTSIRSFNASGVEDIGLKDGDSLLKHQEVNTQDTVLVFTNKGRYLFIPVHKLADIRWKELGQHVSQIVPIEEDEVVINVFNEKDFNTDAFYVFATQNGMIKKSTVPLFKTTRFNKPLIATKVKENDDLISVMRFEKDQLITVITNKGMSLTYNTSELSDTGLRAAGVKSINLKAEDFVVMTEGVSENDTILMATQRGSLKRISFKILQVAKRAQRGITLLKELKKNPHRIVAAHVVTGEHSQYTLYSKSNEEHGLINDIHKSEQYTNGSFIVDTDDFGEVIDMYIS
Experimental: Description related to conducted biological studies including cell culture, suitable conditions, and methodology was presented in our previous paper.
Figure 1 The effect of tested compounds on S. aureus topoisomerase IV activity. Decreasing amounts of 1, 2, or 3 were incubated with 200 ng kinetoplast DNA and run-on agarose gel. Lane: 1–5: compound 3 at concentrations 64, 32, 8, 2, 0.5 μg/mL, respectively. Lane: 6–10: compound 2 at concentrations 64, 32, 8, 2, 0.5 μg/mL, respectively. Lane: 11–15: compound 1 at concentrations 64, 32, 8, 2, 0.5 μg/mL, respectively.

[12] = system: standard bacteria strains; experiment: MIC ranges over the panel of standard strains; assay type: cell-based
Experimental: as §3

[13] = Gram-negative rods: E. coli and P. aeruginosa (standard strains)
[14] = against standard Gram-positive Staphylococci

| Compound | MIC [1] [µg/mL] | MIC [2] [µg/mL] | MIC [3] [µg/mL] | MIC [4] [µg/mL] | MIC [5] [µg/mL] | MIC [6] [µg/mL] | MIC [7] [µg/mL] | MIC [8] [µg/mL] | MIC [9] [µg/mL] | MIC [10] [µg/mL] | IC50 [11] [µM] | MIC values, range [12, 13] [µg/mL] | MIC values, range [12, 14] [µg/mL] |
| --- | --- | --- | --- | --- | --- | --- | --- | --- | --- | --- | --- | --- | --- |
| CC1=C(C)C2(C)CC1(C)C1C(=O)N(Nc3nnnn3-c3ccc([N+](=O)[O-])cc3)C(=O)C12 (centres unmarked) [Compound 4, 4,5,6,7-Tetramethyl-2-((1-(4-nitrophenyl)-1H-tetrazol-5-yl)amino)-3a,4,7,7a-tetrahydro-1H-4,7-methanoisoindole-1,3(2H)-dione] | 16 (≈ 37.8 µM) | 256 (≈ 605 µM) | 16 (≈ 37.8 µM) | 32 (≈ 75.6 µM) | 256 (≈ 605 µM) | 32 (≈ 75.6 µM) | 256 (≈ 605 µM) | 256 (≈ 605 µM) | 256 (≈ 605 µM) | > 256 |  |  |  |
| CC1=C(C)C2(C)CC1(C)C1C(=O)N(Nc3nnnn3-c3ccccc3)C(=O)C12 (centres unmarked) [Compound 6, 4,5,6,7-Tetramethyl-2-((1-phenyl-1H-tetrazol-5-yl)amino)-3a,4,7,7a-tetrahydro-1H-4,7-methanoisoindole-1,3(2H)-dione] | 4 (≈ 10.6 µM) | 8 (≈ 21.1 µM) | 4 (≈ 10.6 µM) | 4 (≈ 10.6 µM) | 16 (≈ 42.3 µM) | 4 (≈ 10.6 µM) | 8 (≈ 21.1 µM) | 16 (≈ 42.3 µM) | 8 (≈ 21.1 µM) | > 256 |  |  |  |
| CC1=C(C)C2(C)CC1(C)C1C(=O)N(Nc3nnnn3-c3cccc(C(F)(F)F)c3)C(=O)C12 (centres unmarked) [Compound 1, 4,5,6,7-Tetramethyl-2-((1-(3-(trifluoromethyl)phenyl)-1H-tetrazol-5-yl)amino)-3a,4,7,7a-tetrahydro-1H-4,7-methanoisoindole-1,3(2H)-dione] | 0.8 (≈ 1.79 µM) | 3.2 (≈ 7.17 µM) | 0.8 (≈ 1.79 µM) | 0.8 (≈ 1.79 µM) | 1.6 (≈ 3.58 µM) | 0.8 (≈ 1.79 µM) | 3.2 (≈ 7.17 µM) | 3.2 (≈ 7.17 µM) | 0.4 (≈ 0.896 µM) | 12.8 (≈ 28.7 µM) | 142 | 0.4 to 25.6 | 0.1 to 3.2 |
| CC(C)C12C=CC(C)(CC1)C1C(=O)N(Nc3nnnn3-c3ccccc3Br)C(=O)C12 (centres unmarked) [Compound 9, 2-((1-(2-Bromophenyl)-1H-tetrazol-5-yl)amino)-4-isopropyl-7-methyl-3a,4,7,7a-tetrahydro-1H-4,7-ethanoisoindole-1,3(2H)-dione] | 4 (≈ 8.49 µM) | 8 (≈ 17 µM) | 4 (≈ 8.49 µM) | 4 (≈ 8.49 µM) | 16 (≈ 33.9 µM) | 2 (≈ 4.24 µM) | 8 (≈ 17 µM) | 16 (≈ 33.9 µM) | 128 (≈ 272 µM) | > 256 |  |  |  |
| CC1=C(C)C2(C)CC1(C)C1C(=O)N(Nc3nnnn3-c3ccccc3Br)C(=O)C12 (centres unmarked) [Compound 3, 2-((1-(2-Bromophenyl)-1H-tetrazol-5-yl)amino)-4,5,6,7-tetramethyl-3a,4,7,7a-tetrahydro-1H-4,7-methanoisoindole-1,3(2H)-dione] | 0.8 (≈ 1.75 µM) | 1.6 (≈ 3.5 µM) | 0.8 (≈ 1.75 µM) | 0.8 (≈ 1.75 µM) | 1.6 (≈ 3.5 µM) | 0.8 (≈ 1.75 µM) | 1.6 (≈ 3.5 µM) | 3.2 (≈ 7 µM) | 0.4 (≈ 0.875 µM) | 16 (≈ 35 µM) | 134 | 0.4 to 25.6 | 0.1 to 3.2 |
| CC1=C(C)C2(C)CC1(C)C1C(=O)N(Nc3nnnn3-c3ccccc3Cl)C(=O)C12 (centres unmarked) [Compound 2, 2-((1-(2-Chlorophenyl)-1H-tetrazol-5-yl)amino)-4,5,6,7-tetramethyl-3a,4,7,7a-tetrahydro-1H-4,7-methanoisoindole-1,3(2H)-dione] | 0.8 (≈ 1.94 µM) | 1.6 (≈ 3.88 µM) | 0.8 (≈ 1.94 µM) | 0.8 (≈ 1.94 µM) | 1.6 (≈ 3.88 µM) | 0.8 (≈ 1.94 µM) | 3.2 (≈ 7.75 µM) | 3.2 (≈ 7.75 µM) | 1.6 (≈ 3.88 µM) | 25.6 (≈ 62 µM) | 141 | 0.4 to 25.6 | 0.1 to 3.2 |
| CC(C)C12C=CC(C)(CC1)C1C(=O)N(Nc3nnnn3-c3ccc([N+](=O)[O-])cc3)C(=O)C12 (centres unmarked) [Compound 8, 4-Isopropyl-7-methyl-2-((1-(4-nitrophenyl)-1H-tetrazol-5-yl)amino)-3a,4,7,7a-tetrahydro-1H-4,7-ethanoisoindole-1,3(2H)-dione] | 16 (≈ 36.6 µM) | > 256 | 16 (≈ 36.6 µM) | 16 (≈ 36.6 µM) | > 256 | 16 (≈ 36.6 µM) | > 256 | > 256 | > 256 | > 256 |  |  |  |
| Cc1ccc(-n2nnnc2NN2C(=O)C3C(C2=O)C2(C(C)C)C=CC3(C)CC2)cc1 (centres unmarked) [Compound 10, 4-Isopropyl-7-methyl-2-((1-(p-tolyl)-1H-tetrazol-5-yl)amino)-3a,4,7,7a-tetrahydro-1H-4,7-ethanoisoindole-1,3(2H)-dione] | 16 (≈ 39.4 µM) | 32 (≈ 78.7 µM) | 16 (≈ 39.4 µM) | 16 (≈ 39.4 µM) | 32 (≈ 78.7 µM) | 8 (≈ 19.7 µM) | 32 (≈ 78.7 µM) | 32 (≈ 78.7 µM) | 16 (≈ 39.4 µM) | > 256 |  |  |  |
